Test results: patent US7354904B2, “Bacteriocin inducer peptides” (priority 2005, dated 2008)

Legend:
C. jejuni = test: Spot Test, antagonistic activity of isolated signal peptides; assay type: cell-based, Campylobacter jejuni; settings: isolated signal peptide
Experimental: (§1) The antagonistic activity of the bacteriocins produced when using the signal peptide and an inducer strain of bacteria against C. jejuni and S. enteritidis was assessed using a Spot Test. The steps included taking various concentrations of pure preparation (μg/ml) of the bacteriocin in approximately 10 microliters of volume plated onto blood-supplemented Campylobacter agar or Nutrient agar (MPA or Meta Peptone Agar) previously seeded with cells of target bacteria. Plates containing cultures of C. jejuni were grown at about 42° C., under microaerobic conditions. Plates containing S. enteritidis were grown at about 37° C. under aerobic conditions. Activity of the bacteriocin was expressed in arbitrary units (AU) per one milliliter of the preparation at which a visible zone of inhibition of the growth of culture appears (Henderson et al., Archives of Biochemistry and Biophysics, Volume 295, 5-12, 1992; herein incorporated by reference). Specific activity can also expressed as arbitrary units per milligram of pure bacteriocin.
Its activity was about 200 AU/ml and its molecular weight was about 2.5 kDa, as determined by SDS-PAGE electrophoresis. The isoelectric point (pI) was about 7.9 (FIGS. 1A and 1B).
Its molecular weight was about 3.1 kDa as measured by SDS-PAGE and the isoelectric point (pI) was about 8.1 (FIGS. 2A and 2B).
Its molecular weight was about 2.1 kDa as determined by SDS-PAGE electrophoresis and its isoelectric point was about 8.9 (FIGS. 3A and 3B).

[1] = system: Enterococcus faecium LWP 50-52; test: Influence of signal peptide on bacteriocin 50-52 production, flask culture (fraction protein at 215 nm, activity by spot-test against C. jejuni and S. enteritidis); assay type: cell-based
[2] = system: Enterococcus faecium LWP 50-52; test: Bacteriocin 50-52 production with signal peptide under scaled-up cultivation (bioreactor); assay type: cell-based; settings: LWP 50-52 + LWP-320, 0.22 mg peptide added after 2 hours of cultivation, about 12 hours
Experimental: as §1
Isolation of bacteriocin 50-52 involved two steps: (1) the isolation of bacteriocin from the supernatant of the culture fluid and (2) the isolation of bacteriocin from the precipitate of cells of both the inducing and the producing strains. In step 1, the cultures were harvested and separated by centrifugation at about 10,000×g for about 15 minutes to precipitate the cells. The supernatant was applied to an Octyl Sepharose 4 Fast Flow column to recover the bacteriocin using an elution buffer of about 20 mM K2HPO4 buffer, pH approximately 7.0. The cell precipitate from step 2 was suspended in phosphate buffer with about 0.7% NaCl, pH approximately 5.6 (elution buffer) and the suspension was mixed and incubated for about 20 minutes. After incubation, the suspension was centrifuged at about 10,000×g for about 15 minutes. The bacteriocin was isolated from the supernatant using ion-exchange chromatography on Superose SP Fast Flow using an elution buffer containing about 10 mM Tris HCl and about 125 mM NaCl, pH approximately 7.5. Antagonistic activities of the bacteriocin fractions against C. jejuni and S. enteritidis were assessed in a spot-test. The level of purity of bacteriocins was determined by SDS-PAGE. The isoelectric points of the fractions were determined using isoelectricfocusing. Concentrations of protein for all bacteriocin fractions were determined at approximately 215 nm using a spectrophotometric method.
To evaluate influence of the signal peptide on bacteriocin production under scaled-up cultivation, producing and inducing strains were grown in a V-6 liter bioreactor containing about 6 liters of medium. The ratio of concentrations of cultures and the signal peptide was maintained as in Table 5 for the conditions of 10% Brucella Broth, LWP 50-52, LWP 320, 0.01 mg/ml of LWP 50-52 signal peptide added after about 2 hours of cultivation. Isolation of bacteriocin 50-52 was performed at about 8, 10, 12, and 14 hours of cultivation as described above. The control contained 10% Brucella Broth, LWP 50-52, LWP-320, at a pH of approximately 6.9, at about 37° C., and about 150 rpm. The bacteriocin 50-52 was isolated after about 12 hours of cultivation. For the second condition, the conditions were the same except that approximately 0.22 mg of LWP 50-52 signal peptide was added after 2 hours of cultivation. Each condition was repeated three times.

[3] = LWP 50-52 + LWP 320, peptide 0.001 mg/ml
[4] = LWP 50-52 + LWP 320, peptide 0.001 mg/ml added after about 2 hours
[5] = LWP 50-52 + LWP 320, peptide 0.001 mg/ml added after about 4 hours
[6] = LWP 50-52 + LWP 320, peptide 0.001 mg/ml added after about 6 hours
[7] = LWP 50-52 + LWP 320, peptide 0.01 mg/ml
[8] = LWP 50-52 + LWP 320, peptide 0.01 mg/ml added after about 2 hours
[9] = LWP 50-52 + LWP 320, peptide 0.01 mg/ml added after about 4 hours
[10] = LWP 50-52 + LWP 320, peptide 0.01 mg/ml added after about 6 hours
[11] = LWP 50-52 + LWP 320, peptide 0.1 mg/ml
[12] = LWP 50-52 + LWP 320, peptide 0.1 mg/ml added after about 2 hours
[13] = LWP 50-52 + LWP 320, peptide 0.1 mg/ml added after about 4 hours
[14] = LWP 50-52 + LWP 320, peptide 0.1 mg/ml added after about 6 hours
[15] = LWP 50-52, no inducer, peptide 0.001 mg/ml
[16] = LWP 50-52, no inducer, peptide 0.001 mg/ml added after about 2 hours
[17] = LWP 50-52, no inducer, peptide 0.001 mg/ml added after about 4 hours
[18] = LWP 50-52, no inducer, peptide 0.001 mg/ml added after about 6 hours
[19] = LWP 50-52, no inducer, peptide 0.01 mg.ml added after about 4 hours
[20] = LWP 50-52, no inducer, peptide 0.01 mg.ml added after about 6 hours
[21] = LWP 50-52, no inducer, peptide 0.01 mg/ml
[22] = LWP 50-52, no inducer, peptide 0.01 mg/ml added after about 2 hours
[23] = LWP 50-52, no inducer, peptide 0.1 mg/ml
[24] = LWP 50-52, no inducer, peptide 0.1 mg/ml added after about 2 hours
[25] = LWP 50-52, no inducer, peptide 0.10 mg/ml added after about 4 hours
[26] = LWP 50-52, no inducer, peptide 0.10 mg/ml added after about 6 hours

TNVTKSWWVLAGCNQVVASNCNCGNVKGLT (listed as Enterococcus faecium) [LWP 50-52 Signal Peptide, signal peptide isolated from Enterococcus faecium LWP 50-52, stimulates bacteriocin 50-52 production]
1.04: Protein increase vs. Control [1, 26]
1.07 mg/mL: Protein Concentration [1, 8]
2,642,580 AU/mg: Specific Activity [1, 22]
about 353.1 mg protein/liter: mg protein/liter ([1]; LWP 50-52 + LWP 320, peptide 0.01 mg/ml added after about 2 hours, listed as signal peptide from LWP 50-52)
0.27 mg/mL: Protein Concentration [1, 19] | Protein Concentration [1, 20] | Protein Concentration [1, 21] | Protein Concentration [1, 24] | Protein Concentration [1, 25]
1.0 mg/mL: Protein Concentration [1, 7] | Protein Concentration [1, 9] | Protein Concentration [1, 10]
about 360 mg: Amount of Protein/liter of medium ([2]; listed as LWP 50-52 signal peptide)
3,276,800 AU/mg: Specific Activity [1, 3] | Specific Activity [1, 4] | Specific Activity [1, 5] | Specific Activity [1, 6] | Specific Activity [1, 11] | Specific Activity [1, 12] | Specific Activity [1, 13] | Specific Activity [1, 14] | Specific Activity [1, 15] | Specific Activity [1, 16] | Specific Activity [1, 17] | Specific Activity [1, 18] | Specific Activity [1, 23]
0.31 mg/mL: Protein Concentration [1, 22]
89.1 mg protein/liter: mg protein/liter [1, 19] | mg protein/liter [1, 20] | mg protein/liter [1, 21] | mg protein/liter [1, 24] | mg protein/liter [1, 25]
0.26 mg/mL: Protein Concentration [1, 26]
353.1 mg protein/liter: mg protein/liter ([1]; LWP 50-52 + LWP 320, peptide 0.01 mg/ml added after about 2 hours, listed as LWP 320 Signal Peptide)
819,200 AU/ml: Activity [1, 3] | Activity [1, 4] | Activity [1, 5] | Activity [1, 6] | Activity [1, 11] | Activity [1, 12] | Activity [1, 13] | Activity [1, 14] | Activity [1, 15] | Activity [1, 16] | Activity [1, 17] | Activity [1, 18] | Activity [1, 19] | Activity [1, 20] | Activity [1, 21] | Activity [1, 22] | Activity [1, 23] | Activity [1, 24] | Activity [1, 25] | Activity [1, 26]
102.3 mg protein/liter: mg protein/liter [1, 22]
2,730,665 AU/mg: Specific Activity [2]
3,276,800 AU/ml: Activity [1, 8]
330.0 mg protein/liter: mg protein/liter [1, 7] | mg protein/liter [1, 9] | mg protein/liter [1, 10]
1,638,400 AU/ml: Activity [1, 7] | Activity [1, 9] | Activity [1, 10]
3,062,429 AU/mg: Specific Activity [1, 8]
6,553,600 AU/ml: Activity [2]
82.5 mg protein/liter: mg protein/liter [1, 3] | mg protein/liter [1, 4] | mg protein/liter [1, 5] | mg protein/liter [1, 6] | mg protein/liter [1, 11] | mg protein/liter [1, 12] | mg protein/liter [1, 13] | mg protein/liter [1, 14] | mg protein/liter [1, 15] | mg protein/liter [1, 16] | mg protein/liter [1, 17] | mg protein/liter [1, 18] | mg protein/liter [1, 23]
3,034,074 AU/mg: Specific Activity [1, 19] | Specific Activity [1, 20] | Specific Activity [1, 21] | Specific Activity [1, 24] | Specific Activity [1, 25]
85.8 mg protein/liter: mg protein/liter [1, 26]
360 mg: Amount of Protein/liter of medium ([2]; listed as LWP 50-52 signal Peptide)
1,638,400 AU/mg: Specific Activity [1, 7] | Specific Activity [1, 9] | Specific Activity [1, 10]
did not possess antagonistic activity: antagonistic activity (C. jejuni)
1.24: Protein increase vs. Control [1, 22]
1.08: Protein increase vs. Control [1, 19] | Protein increase vs. Control [1, 20] | Protein increase vs. Control [1, 21] | Protein increase vs. Control [1, 24] | Protein increase vs. Control [1, 25]
3,150,769 AU/mg: Specific Activity [1, 26]
0.25 mg/mL: Protein Concentration [1, 3] | Protein Concentration [1, 4] | Protein Concentration [1, 5] | Protein Concentration [1, 6] | Protein Concentration [1, 11] | Protein Concentration [1, 12] | Protein Concentration [1, 13] | Protein Concentration [1, 14] | Protein Concentration [1, 15] | Protein Concentration [1, 16] | Protein Concentration [1, 17] | Protein Concentration [1, 18] | Protein Concentration [1, 23]
4: Protein increase vs. Control [1, 7] | Protein increase vs. Control [1, 9] | Protein increase vs. Control [1, 10] | Increase in the amount of protein vs. control [2]
1: Protein increase vs. Control [1, 3] | Protein increase vs. Control [1, 4] | Protein increase vs. Control [1, 5] | Protein increase vs. Control [1, 6] | Protein increase vs. Control [1, 11] | Protein increase vs. Control [1, 12] | Protein increase vs. Control [1, 13] | Protein increase vs. Control [1, 14] | Protein increase vs. Control [1, 15] | Protein increase vs. Control [1, 16] | Protein increase vs. Control [1, 17] | Protein increase vs. Control [1, 18] | Protein increase vs. Control [1, 23]
2.4 mg/mL: Protein Concentration [2]
4.28: Protein increase vs. Control [1, 8]
